Results as given in the supplement of paper PMC10307832.

Tests used:
Assay in all cases: relative viability (nuclei count vs DMSO), 5 days (fraction); higher = more cells survive
[1] = compound: CCC1=CN=CN=C1N2CCN(CC2)CC3=NC4=C(N3)C=C(C=C4)C(F)(F)F + COc1cc2c(Oc3ccc(NC(=O)C4(C(=O)Nc5ccc(F)cc5)CC4)cc3F)ccnc2cc1OCCCN1CCOCC1 [Foretinib] (partner 0.25 µM)
How it was run: (§1)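 Each reported value is a median over duplicate plates. It expresses relative viability: treated-well nuclei count divided by vehicle-well nuclei count. Lung cancer cell lines in 1536-well plates were dosed by pin tool a day after seeding, alone with one drug or with a fixed anchor-drug dose plus five library-drug doses (not always all listed) in √10 steps, and nuclei were counted after 5 days.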

[2] = compound: CCn1c(-c2nonc2N)nc2cnc(Oc3cccc(NC(=O)c4ccc(OCCN5CCOCC5)cc4)c3)cc21 + Nc1nc2[nH]cc(CCc3ccc(C(=O)N[C@@H](CCC(=O)O)C(=O)O)cc3)c2c(=O)[nH]1 [Pemetrexed] (partner 0.2 µM)
How it was run: as §1

[3] = compound: N=C1NC(=O)/C(=C/c2ccc(O)cc2)S1 [Mirin] + Cc1cc(Nc2cc(N3CCN(C)CC3)nc(Sc3ccc(NC(=O)C4CC4)cc3)n2)n[nH]1 [Tozasertib] (partner 0.1 µM)
How it was run: as §1

[4] = compound: N=C1NC(=O)/C(=C/c2ccc(O)cc2)S1 [Mirin] + Nc1ncn([C@H]2C[C@H](O)[C@@H](CO)O2)c(=O)n1 [Decitabine] (partner 2 µM)
How it was run: as §1

| Cell Line | relative viability ([1]; first compound 0.04 µM) | relative viability ([1]; first compound 0.1265 µM) | relative viability ([1]; first compound 0.4 µM) | relative viability ([1]; first compound 1.265 µM) | relative viability ([1]; first compound 4 µM) | relative viability ([2]; first compound 0.04 µM) | relative viability ([2]; first compound 0.1265 µM) | relative viability ([2]; first compound 0.4 µM) | relative viability ([2]; first compound 1.265 µM) | relative viability ([2]; first compound 4 µM) | relative viability ([3]; first compound 0.25 µM) | relative viability ([3]; first compound 2.5 µM) | relative viability ([3]; first compound 7.906 µM) | relative viability ([3]; first compound 25 µM) | relative viability ([4]; first compound 0.25 µM) | relative viability ([4]; first compound 0.7906 µM) | relative viability ([4]; first compound 2.5 µM) | relative viability ([4]; first compound 7.906 µM) | relative viability ([4]; first compound 25 µM) | relative viability ([3]; first compound 0.7906 µM) |
| --- | --- | --- | --- | --- | --- | --- | --- | --- | --- | --- | --- | --- | --- | --- | --- | --- | --- | --- | --- | --- |
| HCC-366 | 0.856 | 1.01 | 0.915 | 0.877 | 0.851 | 0.166 | 0.173 | 0.131 | 0.0447 | 0.0523 | 0.15 | 0.602 | 0.0813 | 0.103 | 0.342 | 0.315 | 0.325 | 0.322 | 0.374 | – |
| NCI-H2405 | 1.06 | 1.02 | 1.06 | – | 1.12 | 1.01 | 0.395 | 0.315 | 0.247 | 0.284 | 0.71 | 0.775 | 0.67 | 0.61 | 0.72 | – | 0.691 | 0.725 | 0.708 | 0.778 |
| LXF-289 | 1.03 | 0.949 | 0.971 | 0.937 | 0.934 | 0.972 | 0.974 | 0.918 | 0.856 | 0.795 | 0.214 | 0.156 | 0.128 | 0.151 | 0.347 | 0.394 | 0.335 | 0.347 | 0.387 | 0.241 |
| NCI-H1793 | 0.7 | 0.771 | 0.568 | – | 0.669 | 0.542 | 0.754 | 0.69 | 0.512 | 0.502 | 0.341 | 0.619 | 0.283 | 0.178 | 0.472 | – | 0.434 | 0.52 | 0.48 | – |
| LU99A | 0.744 | 0.751 | 0.771 | 0.804 | 0.87 | 0.227 | 0.167 | 0.168 | 0.163 | 0.158 | 0.241 | 0.27 | 0.207 | 0.18 | 0.877 | 0.785 | 0.94 | 0.892 | 0.736 | 0.216 |
| PC-3 [JPC-3] | 1.08 | 0.9 | 0.997 | 0.964 | 0.971 | 1.14 | 1.03 | 1.05 | 0.662 | 0.928 | 0.905 | 0.893 | 0.879 | 0.899 | 0.818 | 0.825 | 0.825 | 0.76 | 0.836 | 0.978 |
| NCI-H2085 | 0.971 | 1.13 | 0.792 | 0.76 | 0.959 | 0.888 | 0.591 | 0.601 | 0.591 | 0.664 | 0.8 | 0.678 | 0.749 | 0.546 | 0.562 | 0.537 | 0.546 | 0.553 | 0.604 | 0.826 |
| NCI-H2170 | 1.01 | 0.975 | 0.94 | 0.867 | 1 | 0.263 | 0.263 | 0.272 | 0.223 | 0.244 | 0.709 | 0.713 | 0.652 | 0.504 | 0.462 | 0.483 | 0.45 | 0.415 | 0.411 | 0.747 |
| HCC-78 | 0.585 | 0.631 | 0.491 | 0.51 | 0.539 | 0.959 | 0.847 | – | 0.929 | 0.951 | 0.409 | 0.386 | 0.337 | 0.33 | 0.514 | 0.764 | 0.698 | 0.565 | 0.657 | 0.492 |
| NCI-H1395 | 0.847 | 0.881 | 1.01 | 0.986 | 0.94 | 0.961 | 0.825 | 0.736 | 0.519 | 0.434 | 0.703 | 0.66 | 0.772 | 0.72 | 0.721 | – | 0.814 | 0.741 | 0.66 | 0.857 |
| H3255 | 0.828 | 0.872 | 0.894 | 0.739 | 0.776 | 0.528 | 0.512 | 0.503 | 0.432 | 0.431 | 0.677 | 0.698 | 0.555 | 0.602 | 0.595 | 0.577 | 0.649 | 0.467 | 0.758 | 0.639 |
| HCC-15 | 1.02 | 1.01 | 1.03 | 1 | 1.01 | 0.229 | 0.214 | 0.217 | 0.197 | 0.205 | 0.336 | 0.359 | 0.202 | 0.177 | 0.612 | 0.517 | 0.618 | 0.59 | 0.505 | 0.344 |
| NCI-H2009 | 1.23 | 1.25 | 1.16 | 1.24 | 1.21 | 0.916 | 0.817 | 0.757 | 0.607 | 0.492 | 0.707 | 0.725 | 0.614 | 0.556 | 0.354 | 0.373 | 0.425 | 0.361 | 0.405 | 0.785 |
| ChaGo-K-1 | 1.02 | 0.992 | 0.794 | 0.814 | 0.891 | 0.263 | 0.25 | 0.238 | 0.235 | 0.239 | 0.234 | 0.241 | 0.215 | 0.171 | 0.412 | 0.476 | 0.545 | 0.516 | 0.434 | 0.222 |
| COR-L23 | 0.925 | 0.861 | 0.986 | 0.918 | 0.897 | 0.211 | 0.19 | 0.194 | 0.164 | 0.123 | 0.162 | 0.17 | 0.15 | 0.132 | 0.447 | 0.505 | 0.466 | 0.426 | 0.409 | 0.213 |
| EMC-BAC-2 | 1 | 0.943 | 1.03 | – | 0.914 | 0.419 | 0.377 | 0.298 | 0.298 | 0.311 | 0.274 | 0.284 | 0.228 | 0.162 | 0.997 | 1.02 | 0.977 | 0.949 | 1.09 | 0.28 |
| LCLC-103H | 0.917 | 0.852 | 0.757 | 0.644 | 0.688 | 0.394 | 0.444 | 0.36 | 0.345 | 0.419 | 0.417 | 0.481 | 0.461 | 0.336 | 0.692 | 0.759 | 0.736 | 0.797 | 0.871 | 0.554 |
